Experimental data as given in publication PMC5215716, “A Target-Based Whole Cell Screen Approach To Identify Potential Inhibitors of Mycobacterium tuberculosis Signal Peptidase” (ACS Infectious Diseases, 2016).
Converted amounts (≈) assume the structure as drawn. Read-outs that look alike come from different tables or passages of the source. Marks after values point to notes of the source that are not given here.

What was measured:
[1] = system: M. tuberculosis strain SPAM13C (LepB-UE); test: microbe, parasite or virus in culture; type: cell-based, Mycobacterium tuberculosis; conditions: for MIC: Mycobacterium tuberculosis; for Change in potency against LepB-UE compared to compound 1: decrease in potency relative to compound 1
[2] = system: wild-type (wt) M. tuberculosis strain; test: microbe, parasite or virus in culture; type: cell-based, Mycobacterium tuberculosis; conditions: for MIC: Mycobacterium tuberculosis
LepB = molecular target: T1, LepB (Mycobacterium tuberculosis, UniProt P9WKA1); test: LepB membrane assay (fluorogenic signal peptide cleavage by cell membrane fraction); type: biochemical; conditions: M. tuberculosis H37Rv cell membrane fraction, 2 μM peptide substrate, 4 h at 37 °C
T1 construct: we used purified membrane fractions to develop an in vitro assay for signal peptide cleavage; host or cells: γ-irradiated whole M. tuberculosis H37Rv; Triton X-114 membrane fraction
T1 sequence (P9WKA1 1-294): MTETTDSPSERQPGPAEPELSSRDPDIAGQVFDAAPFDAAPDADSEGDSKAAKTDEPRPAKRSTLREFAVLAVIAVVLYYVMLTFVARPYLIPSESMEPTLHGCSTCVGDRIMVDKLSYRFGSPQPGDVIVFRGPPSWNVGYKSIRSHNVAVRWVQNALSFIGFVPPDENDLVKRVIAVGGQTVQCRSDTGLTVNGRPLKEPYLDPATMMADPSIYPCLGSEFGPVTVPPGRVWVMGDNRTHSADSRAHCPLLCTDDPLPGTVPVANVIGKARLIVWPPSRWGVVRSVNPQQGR

in vitro = type: cell-based, African green monkey; conditions: African green monkey
Protocol: Cytotoxicity against African green monkey adult kidney cell (Vero cells) was determined as previously described using CellTiter-Glo reagent.[44] The concentration causing 50% growth inhibition (IC50) was calculated by fitting the inhibition curves using the Levenberg–Marquardt algorithm.

[3] = 120 h, M. tuberculosis strain SPAM13C, OD590 after 5 days at 37 °C, average ± SD of at least two experiments, b = single value, read-out: LepB-UE MIC
[4] = 120 h, […], OD590 after 5 days at 37 °C, average ± SD of at least two experiments, b = single value, read-out: WT MIC
[5] = M. tuberculosis strain SPAM13C, OD590 after 5 days at 37 °C, average ± SD of at least two experiments, b = single value
[6] = […], OD590 after 5 days at 37 °C, average ± SD of at least two experiments, b = single value

SMILES	MIC [1, 3] [µM]	MIC [2, 4] [µM]	IC50 (LepB) [µM]	CC50 (in vitro) [µM]	further results
Cc1cc(C)nc(-n2nc(C)c(Oc3ccccc3O)c2C)n1 [Compound 44]	95 ± 7 (≈ 29.5 µg/mL)	> 200	> 200	> 100	
Cc1cc(C)nc(-n2nc(C)c(Cc3ccccc3C)c2O)n1 [Compound 47]	61 ± 7 (≈ 18.8 µg/mL)	> 200	> 200	> 100	
Cc1cnn(-c2cc(N/N=C/c3ccccc3O)ncn2)c1 [Compound 4]	4.5 ± 2.5 (≈ 1.32 µg/mL)	10 ± 7 (≈ 2.94 µg/mL)	> 200	9.2	
C/C(=N\NC(N)=S)c1ccccn1 [Compound 41]	3.6 (≈ 0.699 µg/mL)	4 (≈ 0.777 µg/mL)		22	Differential activity (difference in MIC, wt versus LepB-UE) [1]: equally potent toward both wt and LepB-UE; Change in potency against LepB-UE compared to compound 1 [1]: comparable to that of 1
OCc1ccccc1-n1ccc(-c2cccnc2)n1 [Compound 55]	> 200	> 200		> 100	
CCOC(=O)c1c(C)nn(-c2nc(C)cc(C)n2)c1N [Compound 48]	44 ± 6 (≈ 12.1 µg/mL)	> 200		> 100	
Cc1ccc(Nc2nc(N/N=C/c3ccccc3O)nc(N3CCOCC3)n2)c(Br)c1 [Compound 9]	11 ± 1 (≈ 5.33 µg/mL)	57 ± 24 (≈ 27.6 µg/mL)	> 200	13	
Cc1ccc(-c2cc(C(=O)N/N=C/c3ccccn3)[nH]n2)cc1 [Compound 15]		> 200	> 200	63	LepB-UE MIC [1, 5]: 15 ± 2.5 µM
N=C(N/N=C/c1cccc(Cl)c1)c1ccccn1 [Compound 32]	41 (≈ 10.6 µg/mL)	59 (≈ 15.3 µg/mL)		62	
C/C(=N\Nc1nc(C)cc(C)n1)c1ccccc1 [Compound 22]		> 200	> 200	> 100	Change in potency against LepB-UE compared to compound 1 [1]: at least 10 fold
C/C(=N\Nc1nc(C)cc(C)n1)c1cccs1 [Compound 21]		> 200	120	> 100	Change in potency against LepB-UE compared to compound 1 [1]: at least 10 fold
CSC(=S)N/N=C(\c1ccccc1)c1ccccn1 [Compound 19]	6 ± 4.2 (≈ 1.72 µg/mL)	10 ± 3 (≈ 2.87 µg/mL)		2.4	
Cc1ccc(C(N)=O)cc1-n1ccc(-c2cnccn2)n1 [Compound 56]	> 200	> 200		> 100	
Cc1nc2ccccc2nc1N/N=C/c1c(O)ccc2ccccc12 [Compound 7]	3.9 ± 1.7 (≈ 1.28 µg/mL)	14 ± 3 (≈ 4.6 µg/mL)	130	5.2	
CC(O)c1nc2cc(-n3ccc(-c4cnccn4)n3)ccc2[nH]1 (centres unmarked) [Compound 54]	> 200	> 200		> 100	
N=C(N/N=C/c1cc([N+](=O)[O-])ccc1O)c1ccccn1 [Compound 16]	10 ± 3.4 (≈ 2.85 µg/mL)	> 200	119	> 100	
C/C(=N\Nc1nc(C)cc(C)n1)c1cccc(O)c1 [Compound 23]	30 to 90 (≈ 7.69 to 23.1 µg/mL)	115 (≈ 29.5 µg/mL)	140	> 100	LepB-UE MIC [1, 5]: 54 ± 2 µM; Change in potency against LepB-UE compared to compound 1 [1]: at least 10 fold
C/C(=N\NC(=O)c1ccncc1)c1ccccn1 [Compound 31]	3.5 to 15 (≈ 0.841 to 3.6 µg/mL)	4.7 ± 0.3 (≈ 1.13 µg/mL)		10	LepB-UE MIC [1, 5]: 3.6 ± 0.7 µM; Change in potency against LepB-UE compared to compound 1 [1]: activity was comparable to that of 1
C/C(=N\NC(=N)c1ccccn1)c1ccccn1 [Compound 30]	7.7 ± 0.2 (≈ 1.84 µg/mL)	47 ± 6 (≈ 11.2 µg/mL)		59	Change in potency against LepB-UE compared to compound 1 [1]: activity was comparable to that of 1
O=C(N/N=C/c1cccc2cccnc12)c1ccn(Cc2ccc(Cl)cc2)n1 [Compound 12]	3.5 to 15 (≈ 1.36 to 5.85 µg/mL)	22 ± 2 (≈ 8.58 µg/mL)	> 200	34	LepB-UE MIC [1, 5]: 6.3 ± 3.5 µM
Cc1cc(C)nc(-n2nc(C)c3c2NC(=O)CC3c2ccccc2)n1 (centres unmarked) [Compound 50]	> 200	> 200		66	
Cc1ccc(C(N)=O)cc1-n1ccc(-c2cccnc2)n1 [Compound 53]	> 200	> 200		> 100	
C/C(=N\Nc1nc(C)cc(C)n1)c1ccco1 [Compound 20]		> 200	74	> 100	Change in potency against LepB-UE compared to compound 1 [1]: at least 10 fold

SMILES	MIC [1, 3] [µM]	MIC [2, 4] [µM]	IC50 (LepB) [µM]	CC50 (in vitro) [µM]	further results
C/C(=N\NC(=O)c1ccoc1C)c1ccccn1 [Compound 39]	2 to 2.5 (≈ 0.487 to 0.608 µg/mL)	< 10	> 200	3.3	LepB-UE MIC [1, 5]: 2.5 ± 0.2 µM; WT MIC [2, 6]: 5.5 ± 1.4 µM
C/C(=N\NC(=O)c1ccc(Br)o1)c1ccccn1 [Compound 35]		5.3 ± 3.3 (≈ 1.63 µg/mL)		0.6	LepB-UE MIC [1, 5]: 8.2^b μM
C/C(=N\Nc1ccccn1)c1ccccn1 [Compound 29]	130 (≈ 27.6 µg/mL)	> 200		> 100	Change in potency against LepB-UE compared to compound 1 [1]: 42 fold
CC1=NN(c2nc(C)cc(C)n2)C(=O)C1C (centres unmarked) [Compound 46]	90 ± 28 (≈ 19.6 µg/mL)	> 200	> 200	> 100	
Cc1cc(C)nc(-n2nc(C)c3c2CC(c2cccs2)CC3=O)n1 (centres unmarked) [Compound 49]	> 200	> 200			
Cc1cc(C)nc(-n2nc(C)cc2C)n1 [Compound 43]	48 ± 2 (≈ 9.71 µg/mL)	115 ± 23 (≈ 23.3 µg/mL)	> 200	> 100	
CCOC(=O)CN1C(=O)/C(=N\NC(=O)c2ccccn2)c2ccccc21 [Compound 14]	3.5 to 15 (≈ 1.23 to 5.29 µg/mL)	> 200	> 200	32	LepB-UE MIC [1, 5]: 4.9 ± 1.9 µM
C/C(=N\NC(=O)c1cc(Br)ccc1O)c1ccccn1 [Compound 37]	2 to 2.5 (≈ 0.668 to 0.835 µg/mL)	4.2 ± 2.6 (≈ 1.4 µg/mL)		5.4	LepB-UE MIC [1, 5]: 2.0 ± 0.5 µM
C/C(=N\Nc1nc(C)cc(C)n1)c1cccnc1 [Compound 26]	> 200	> 200			
Cc1cc(C)nc(NN=C(c2ccccc2)c2ccccc2)n1 [Compound 27]	2.2 ± 0.7 (≈ 0.665 µg/mL)	17 ± 8 (≈ 5.14 µg/mL)	> 200	0.1	Change in potency against LepB-UE compared to compound 1 [1]: little impact on antitubercular activity compared to compound 1
N=C(N/N=C/c1ccccc1O)c1ccccn1 [Compound 17]	6.7 ± 1.6 (≈ 1.61 µg/mL)			> 100	Increase in potency against wt compared to 16 ([2]; relative to compound 16): ~4 fold
CO[C@H]1/C=C/O[C@@]2(C)Oc3c(C)c(O)c4c(O)c(c(/C=N/N5CCN(C)CC5)c(O)c4c3C2=O)NC(=O)/C(C)=C\C=C\[C@H](C)[C@H](O)[C@@H](C)[C@@H](O)[C@@H](C)[C@H](OC(C)=O)[C@@H]1C [rifampicin, reference compound]					MIC ([1]; rifampicin, LepB-UE strain, read-out: MIC against LepB-UE): 0.0054 ± 0.0009 µM (≈ 0.00444 µg/mL); MIC ([2]; read-out: MIC against wt): 0.0077 ± 0.0023 µM (≈ 0.00634 µg/mL)
C/C(=N\NC(=O)C1CC1)c1ccccn1 [Compound 40]		42 ± 15 (≈ 8.54 µg/mL)	> 200	75	LepB-UE MIC [1, 5]: 15 ± 1 µM
C/C(=N\NC(=O)c1ccc(N2CCCC2=O)cc1)c1ccccn1 [Compound 11]	3.5 to 15 (≈ 1.13 to 4.84 µg/mL)	< 10	26	6.1	LepB-UE MIC [1, 5]: 3.5 ± 1.8 µM; WT MIC [2, 6]: 14 ± 7 µM
Cc1ccc2cc(C)c(N/N=C/c3cc(Br)ccc3O)nc2c1 [Compound 5]	7.4 ± 3.4 (≈ 2.74 µg/mL)	> 200	> 200	5	
C/C(=N\NC(=S)Nc1cccc(C)c1)c1ccccc1O [Compound 18]	9 ± 5.8 (≈ 2.69 µg/mL)	18 ± 12 (≈ 5.39 µg/mL)		11	
C/C(=N\NS(=O)(=O)c1ccccc1)c1ccccn1 [Compound 42]	48 (≈ 13.2 µg/mL)	94 (≈ 25.9 µg/mL)	34	> 100	Change in potency against LepB-UE compared to compound 1 [1]: 16 fold
CN(Cc1ccn(C)n1)C(=O)c1ccn(-c2ccc([N+](=O)[O-])cc2)n1 [Compound 51]	> 200	> 200		> 100	
C/C(=N\Nc1nc(C)cc(C)n1)c1ccccn1 [Compound 1]	3 ± 1.1 (≈ 0.724 µg/mL)	18 ± 1 (≈ 4.34 µg/mL)	39	2.3	
CC(C)=NNc1nc(C)cc(C)n1 [Compound 25]	> 200	> 200		> 100	
C/C(=N\Nc1nc(C)cc(C)n1)c1ccccc1O [Compound 24]	30 to 90 (≈ 7.69 to 23.1 µg/mL)	40 ± 8 (≈ 10.3 µg/mL)		67	LepB-UE MIC [1, 5]: 30 ± 3 µM; Change in potency against LepB-UE compared to compound 1 [1]: at least 10 fold
Cc1ccn(-c2ccc(C(=O)O)cc2)n1 [Compound 52]	> 200	> 200		> 100	
CC1=NN(c2nc(C)cc(C)n2)C(=O)C1Cc1ccccc1 (centres unmarked) [Compound 45]	56 ± 3 (≈ 16.5 µg/mL)	68 ± 12 (≈ 20 µg/mL)		> 100	
